Source: ChEMBL document CHEMBL3872247, “Discovery of dual positive allosteric modulators (PAMs) of the metabotropic glutamate 2 receptor and CysLT1 antagonists for treating migraine headache” (Bioorg Med Chem Lett, 2017)

Legend:
[1] = biological target: 5-hydroxytryptamine receptor 1D (Homo sapiens, UniProt P28221); test: Activity at human 5HT1D receptor
[2] = Cmax in rat at 1 mg/kg, iv; assay type: ADME, organism-based; set-up: dose 1 mg/kg, route intravenous; settings: in vivo
[3] = biological target: 5-hydroxytryptamine receptor 5A (Homo sapiens, UniProt P47898); test: Displacement of human 5HT5A receptor expressed in HEK293 cells after 120 mins by scintillation counting method; assay type: cell-based
[4] = biological target: 5-hydroxytryptamine receptor 6 (Homo sapiens, UniProt P50406); test: Displacement of [3H]LSD from human 5HT6 receptor expressed in CHO cells after 120 mins by scintillation counting method; assay type: cell-based
[5] = Tmax in rat at 1 mg/kg, po; assay type: ADME, organism-based; settings: in vivo
[6] = biological target: 5-hydroxytryptamine receptor 2C (Homo sapiens, UniProt P28335); test: Activity at human 5T2C receptor
5-hydroxytryptamine receptor 2C, sequence (P28335 whole entry): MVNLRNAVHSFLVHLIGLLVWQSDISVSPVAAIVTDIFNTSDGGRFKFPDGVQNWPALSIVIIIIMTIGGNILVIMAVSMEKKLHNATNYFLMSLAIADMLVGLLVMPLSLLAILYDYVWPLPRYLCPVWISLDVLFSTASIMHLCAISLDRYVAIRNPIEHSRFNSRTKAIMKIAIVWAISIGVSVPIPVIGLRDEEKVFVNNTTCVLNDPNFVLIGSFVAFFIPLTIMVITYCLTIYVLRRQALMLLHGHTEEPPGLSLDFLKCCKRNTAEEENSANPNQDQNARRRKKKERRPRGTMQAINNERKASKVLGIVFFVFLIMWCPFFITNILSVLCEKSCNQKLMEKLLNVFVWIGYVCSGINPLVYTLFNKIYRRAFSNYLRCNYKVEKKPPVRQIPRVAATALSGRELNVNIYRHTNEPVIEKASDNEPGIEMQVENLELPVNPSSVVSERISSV

[7] = biological target: T1, Metabotropic glutamate receptor 1 (Homo sapiens, UniProt Q13255); test: Antagonist activity at recombinant human mGlu1 receptor expressed in hamster AV12 cells expressing EAAT1 assessed as inhibition of glutamate-induced intracellular Ca2+ level measured after 24 hrs by FLIPR assay; assay type: functional, cell-based
T1 sequence (Q13255 whole entry): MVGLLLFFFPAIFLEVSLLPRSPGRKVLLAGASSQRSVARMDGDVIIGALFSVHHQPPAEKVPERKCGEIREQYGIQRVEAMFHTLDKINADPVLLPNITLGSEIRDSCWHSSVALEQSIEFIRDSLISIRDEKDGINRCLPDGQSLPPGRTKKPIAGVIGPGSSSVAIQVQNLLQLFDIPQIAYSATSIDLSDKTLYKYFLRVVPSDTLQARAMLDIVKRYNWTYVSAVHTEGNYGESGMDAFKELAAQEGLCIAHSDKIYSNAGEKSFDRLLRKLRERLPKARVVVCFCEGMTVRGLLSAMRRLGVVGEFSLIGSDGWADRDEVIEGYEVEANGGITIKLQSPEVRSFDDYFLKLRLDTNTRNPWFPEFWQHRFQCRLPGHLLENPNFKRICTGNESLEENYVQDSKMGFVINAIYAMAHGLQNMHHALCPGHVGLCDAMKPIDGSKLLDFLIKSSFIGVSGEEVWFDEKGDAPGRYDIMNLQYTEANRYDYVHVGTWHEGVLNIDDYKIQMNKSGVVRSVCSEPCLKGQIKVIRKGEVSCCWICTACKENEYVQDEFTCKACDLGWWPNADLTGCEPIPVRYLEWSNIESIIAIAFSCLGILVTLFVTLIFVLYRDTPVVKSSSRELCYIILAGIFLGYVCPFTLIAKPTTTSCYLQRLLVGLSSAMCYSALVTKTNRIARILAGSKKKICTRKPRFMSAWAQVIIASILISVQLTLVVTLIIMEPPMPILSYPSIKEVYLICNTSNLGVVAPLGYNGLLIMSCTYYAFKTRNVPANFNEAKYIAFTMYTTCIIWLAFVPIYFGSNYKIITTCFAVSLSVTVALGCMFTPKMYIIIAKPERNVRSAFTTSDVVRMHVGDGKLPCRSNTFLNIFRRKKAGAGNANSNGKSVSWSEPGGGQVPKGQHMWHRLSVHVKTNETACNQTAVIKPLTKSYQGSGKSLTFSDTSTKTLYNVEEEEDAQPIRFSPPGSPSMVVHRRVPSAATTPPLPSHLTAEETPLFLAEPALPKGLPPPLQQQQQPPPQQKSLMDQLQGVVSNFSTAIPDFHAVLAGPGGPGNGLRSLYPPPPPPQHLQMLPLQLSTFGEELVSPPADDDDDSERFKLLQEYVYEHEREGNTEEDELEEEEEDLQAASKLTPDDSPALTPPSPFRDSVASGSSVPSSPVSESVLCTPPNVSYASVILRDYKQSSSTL

[8] = biological target: 5-hydroxytryptamine receptor 1A (Homo sapiens, UniProt P08908); test: Activity at human 5HT1A receptor
5-hydroxytryptamine receptor 1A, sequence (P08908 whole entry): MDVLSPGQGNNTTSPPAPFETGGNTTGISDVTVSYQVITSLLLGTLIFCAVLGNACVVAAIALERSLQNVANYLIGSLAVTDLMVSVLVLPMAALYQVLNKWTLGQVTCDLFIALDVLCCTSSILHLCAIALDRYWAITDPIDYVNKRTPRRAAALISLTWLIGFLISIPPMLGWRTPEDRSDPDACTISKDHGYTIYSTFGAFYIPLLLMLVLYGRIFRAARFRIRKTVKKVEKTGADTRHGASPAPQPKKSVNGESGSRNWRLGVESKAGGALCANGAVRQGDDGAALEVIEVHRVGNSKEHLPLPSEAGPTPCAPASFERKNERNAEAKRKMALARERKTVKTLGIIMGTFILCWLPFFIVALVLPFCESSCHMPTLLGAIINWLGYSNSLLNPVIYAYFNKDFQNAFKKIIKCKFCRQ

[9] = biological target: 5-hydroxytryptamine receptor 7 (Homo sapiens, UniProt P34969); test: Displacement of [3H]LSD from human 5HT7 receptor expressed in CHO cells after 120 mins by scintillation counting method; assay type: cell-based
[10] = biological target: T2, Cysteinyl leukotriene receptor 1 (Homo sapiens, UniProt Q9Y271); test: Antagonist activity at human CysLT1 receptor expressed in Syrian hamster AV12-664 cells assessed as decrease in LTD4-induced intracellular calcium level pretreated followed by LTD4 addition by fluo-3 dye based FLIPR assay; assay type: functional, cell-based
T2 sequence (Q9Y271 whole entry): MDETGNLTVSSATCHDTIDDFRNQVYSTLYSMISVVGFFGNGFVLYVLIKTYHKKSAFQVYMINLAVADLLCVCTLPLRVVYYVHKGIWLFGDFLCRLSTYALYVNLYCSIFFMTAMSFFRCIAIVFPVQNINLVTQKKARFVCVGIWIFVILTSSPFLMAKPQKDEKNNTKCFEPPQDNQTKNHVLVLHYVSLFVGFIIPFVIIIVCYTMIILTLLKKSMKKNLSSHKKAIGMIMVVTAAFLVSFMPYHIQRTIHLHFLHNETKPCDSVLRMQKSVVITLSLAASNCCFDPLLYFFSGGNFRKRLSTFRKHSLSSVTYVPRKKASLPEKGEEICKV

Rattus norvegicus [11] = organism: Rattus norvegicus; test: Displacement of [3H]GABA from non-selective GABA channel in rat cerebral cortex at 10 uM measured after 60 mins by scintillation counting method
Rattus norvegicus [12] = organism: Rattus norvegicus; test: Displacement of [3H]naloxone from opioid receptor in rat cerebral cortex at 10 uM measured after 40 mins by scintillation counting method
[13] = Oral bioavailability in dog at 1 mg/kg; assay type: ADME, organism-based, Canis lupus familiaris; settings: in vivo
[14] = biological target: T3, Metabotropic glutamate receptor 5 (Homo sapiens, UniProt P41594); test: Antagonist activity at recombinant human mGlu5 receptor expressed in hamster AV12 cells expressing EAAT1 assessed as inhibition of glutamate-induced intracellular Ca2+ level measured after 24 hrs by FLIPR assay; assay type: functional, cell-based
T3 sequence (P41594 whole entry): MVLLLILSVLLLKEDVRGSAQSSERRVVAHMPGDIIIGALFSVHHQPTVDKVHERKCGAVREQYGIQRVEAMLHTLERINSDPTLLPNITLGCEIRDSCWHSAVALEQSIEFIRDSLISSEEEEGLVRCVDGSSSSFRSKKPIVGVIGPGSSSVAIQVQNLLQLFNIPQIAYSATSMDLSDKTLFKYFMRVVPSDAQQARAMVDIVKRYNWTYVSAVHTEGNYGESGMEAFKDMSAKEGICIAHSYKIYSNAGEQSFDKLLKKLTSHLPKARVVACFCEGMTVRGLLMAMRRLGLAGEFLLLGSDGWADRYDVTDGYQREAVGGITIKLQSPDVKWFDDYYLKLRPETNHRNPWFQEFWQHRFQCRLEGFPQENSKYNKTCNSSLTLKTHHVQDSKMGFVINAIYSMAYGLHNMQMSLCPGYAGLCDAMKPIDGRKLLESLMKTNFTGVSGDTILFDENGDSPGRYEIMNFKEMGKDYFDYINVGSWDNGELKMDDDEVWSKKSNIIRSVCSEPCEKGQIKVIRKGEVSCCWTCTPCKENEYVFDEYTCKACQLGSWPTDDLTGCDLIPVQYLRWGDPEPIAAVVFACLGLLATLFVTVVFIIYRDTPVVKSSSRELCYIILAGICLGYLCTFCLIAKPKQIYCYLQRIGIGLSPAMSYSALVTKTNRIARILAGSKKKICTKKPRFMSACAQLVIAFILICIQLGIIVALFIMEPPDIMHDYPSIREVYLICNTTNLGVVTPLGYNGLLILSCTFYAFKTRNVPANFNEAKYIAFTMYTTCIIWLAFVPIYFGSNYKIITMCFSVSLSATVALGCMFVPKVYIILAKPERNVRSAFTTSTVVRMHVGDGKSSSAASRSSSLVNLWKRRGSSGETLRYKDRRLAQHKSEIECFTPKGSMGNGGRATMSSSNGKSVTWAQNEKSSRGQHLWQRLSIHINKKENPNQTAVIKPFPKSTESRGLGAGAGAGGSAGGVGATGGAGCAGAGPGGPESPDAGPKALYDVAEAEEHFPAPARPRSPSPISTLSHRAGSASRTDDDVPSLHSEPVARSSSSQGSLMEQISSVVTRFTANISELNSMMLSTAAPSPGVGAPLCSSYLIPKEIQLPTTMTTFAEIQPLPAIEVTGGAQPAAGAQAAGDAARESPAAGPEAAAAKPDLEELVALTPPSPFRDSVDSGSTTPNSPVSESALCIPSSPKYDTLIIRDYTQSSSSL

[15] = Ratio of drug level in brain to plasma in rat at 15 mg/kg, po; assay type: ADME, organism-based
[16] = Half life in dog at 0.5 mg/kg, iv; assay type: ADME, organism-based, Canis lupus familiaris; settings: in vivo
[17] = Half life in dog at 1 mg/kg, po; assay type: ADME, organism-based, Canis lupus familiaris; settings: in vivo
[18] = Clearance in dog at 0.5 mg/kg, iv; assay type: ADME, organism-based, Canis lupus familiaris; settings: in vivo
[19] = biological target: T3, Metabotropic glutamate receptor 5; test: Agonist activity at recombinant human mGlu5 expressed in hamster AV12 cells expressing EAAT1 assessed as increase in intracellular calcium level measured after 24 hrs by FLIPR assay; assay type: functional, cell-based
[20] = biological target: Beta-1 adrenergic receptor (Homo sapiens) (UniProt P08588); test: Displacement of [3H](-)CGP12177 from recombinant human beta1 adrenergic receptor expressed in HEK293 cells at 10 uM measured after 60 mins by scintillation counting method; assay type: cell-based
[21] = biological target: 5-hydroxytryptamine receptor 1E (Homo sapiens, UniProt P28566); test: Activity at human 5HT1E receptor
5-hydroxytryptamine receptor 1E, sequence (P28566 whole entry): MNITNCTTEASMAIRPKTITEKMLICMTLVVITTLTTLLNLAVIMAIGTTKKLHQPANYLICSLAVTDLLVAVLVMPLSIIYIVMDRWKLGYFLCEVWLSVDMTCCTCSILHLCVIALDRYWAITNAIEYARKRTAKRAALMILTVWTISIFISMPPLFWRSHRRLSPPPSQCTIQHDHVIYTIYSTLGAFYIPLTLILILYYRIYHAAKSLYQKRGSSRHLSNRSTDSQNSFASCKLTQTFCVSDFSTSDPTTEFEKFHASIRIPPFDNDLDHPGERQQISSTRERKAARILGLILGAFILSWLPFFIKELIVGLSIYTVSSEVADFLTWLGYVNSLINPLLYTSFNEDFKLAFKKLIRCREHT

[22] = biological target: Metabotropic glutamate receptor 4 (Homo sapiens) (UniProt Q14833); test: Positive allosteric modulation of recombinant human mGlu4 receptor expressed in hamster AV12 cells expressing EAAT1 assessed as potentiation of glutamate-induced intracellular Ca2+ level at 20 uM after 24 hrs by FLIPR assay; assay type: functional, cell-based
[23] = biological target: T3, Metabotropic glutamate receptor 5; test: Positive allosteric modulation of recombinant human mGlu5 expressed in hamster AV12 cells expressing EAAT1 assessed as potentiation of glutamate-induced intracellular Ca2+ level measured after 24 hrs by FLIPR assay; assay type: functional, cell-based
[24] = biological target: Histamine H1 receptor (Homo sapiens) (UniProt P35367); test: Displacement of [3H]pyrilamine from recombinant human histamine H1 receptor expressed in HEK293 cells at 10 uM measured after 60 mins by scintillation counting method; assay type: cell-based
Histamine H1 receptor (Homo sapiens), sequence (P35367 whole entry): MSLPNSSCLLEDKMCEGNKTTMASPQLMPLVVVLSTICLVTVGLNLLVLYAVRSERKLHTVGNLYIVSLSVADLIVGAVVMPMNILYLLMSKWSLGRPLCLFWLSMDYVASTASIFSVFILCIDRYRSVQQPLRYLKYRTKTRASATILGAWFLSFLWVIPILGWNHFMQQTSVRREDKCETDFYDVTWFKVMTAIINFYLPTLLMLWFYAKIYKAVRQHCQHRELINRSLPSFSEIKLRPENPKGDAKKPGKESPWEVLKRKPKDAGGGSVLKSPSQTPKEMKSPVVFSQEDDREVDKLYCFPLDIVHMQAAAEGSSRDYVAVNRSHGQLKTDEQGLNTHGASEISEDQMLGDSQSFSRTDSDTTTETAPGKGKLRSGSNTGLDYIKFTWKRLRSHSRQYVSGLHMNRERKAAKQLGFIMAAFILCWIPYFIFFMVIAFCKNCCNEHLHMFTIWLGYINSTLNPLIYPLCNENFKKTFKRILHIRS

Rattus norvegicus [25] = organism: Rattus norvegicus; test: Displacement of [3H]D888 from L-type calcium channel verapamil binding site in rat cerebral cortex at 10 uM measured after 120 mins by scintillation counting method
[26] = biological target: Metabotropic glutamate receptor 8 (Homo sapiens) (UniProt O00222); test: Positive allosteric modulation of recombinant human mGlu8 expressed in hamster AV12 cells expressing EAAT1 assessed as potentiation of glutamate-induced intracellular Ca2+ level at 20 uM after 24 hrs by FLIPR assay; assay type: functional, cell-based
[27] = Ratio of Cmax in rat to EC50 for human CysLT1 expressed in Syrian hamster AV12-664 cells
[28] = biological target: 5-hydroxytryptamine receptor 1B (Homo sapiens, UniProt P28222); test: Activity at human 5HT1B receptor
[29] = Cmax in dog at 1 mg/kg, po; assay type: ADME, organism-based, Canis lupus familiaris; set-up: dose 1 mg/kg, route oral; settings: in vivo
[30] = biological target: Metabotropic glutamate receptor 2 (Homo sapiens, UniProt Q14416); test: Positive allosteric modulation of recombinant human mGlu2 receptor expressed in hamster AV12 cells expressing EAAT1 assessed as potentiation of glutamate-induced intracellular calcium level measured after 24 to 48 hrs by FLIPR assay relative to glutamate; assay type: functional, cell-based
[31] = Clearance in rat at 1 mg/kg, iv; assay type: ADME, organism-based; settings: in vivo
[32] = biological target: 5-hydroxytryptamine receptor 1F (Homo sapiens, UniProt P30939); test: Activity at human 5HT1F receptor
[33] = biological target: T1, Metabotropic glutamate receptor 1; test: Positive allosteric modulation of recombinant human mGlu1 expressed in hamster AV12 cells expressing EAAT1 assessed as potentiation of glutamate-induced intracellular Ca2+ level measured after 24 hrs by FLIPR assay; assay type: functional, cell-based
[34] = biological target: T1, Metabotropic glutamate receptor 1; test: Agonist activity at recombinant human mGlu1 expressed in hamster AV12 cells expressing EAAT1 assessed as increase in intracellular calcium level measured after 24 hrs by FLIPR assay; assay type: functional, cell-based
[35] = biological target: 5-hydroxytryptamine receptor 2A (Homo sapiens, UniProt P28223); test: Activity at human 5HT2A receptor
[36] = biological target: Metabotropic glutamate receptor 3 (Homo sapiens, UniProt Q14832); test: Positive allosteric modulation of recombinant human mGlu3 expressed in hamster AV12 cells expressing EAAT1 assessed as potentiation of glutamate-induced intracellular Ca2+ level measured after 24 hrs by FLIPR assay; assay type: functional, cell-based
Metabotropic glutamate receptor 3, sequence (Q14832 whole entry): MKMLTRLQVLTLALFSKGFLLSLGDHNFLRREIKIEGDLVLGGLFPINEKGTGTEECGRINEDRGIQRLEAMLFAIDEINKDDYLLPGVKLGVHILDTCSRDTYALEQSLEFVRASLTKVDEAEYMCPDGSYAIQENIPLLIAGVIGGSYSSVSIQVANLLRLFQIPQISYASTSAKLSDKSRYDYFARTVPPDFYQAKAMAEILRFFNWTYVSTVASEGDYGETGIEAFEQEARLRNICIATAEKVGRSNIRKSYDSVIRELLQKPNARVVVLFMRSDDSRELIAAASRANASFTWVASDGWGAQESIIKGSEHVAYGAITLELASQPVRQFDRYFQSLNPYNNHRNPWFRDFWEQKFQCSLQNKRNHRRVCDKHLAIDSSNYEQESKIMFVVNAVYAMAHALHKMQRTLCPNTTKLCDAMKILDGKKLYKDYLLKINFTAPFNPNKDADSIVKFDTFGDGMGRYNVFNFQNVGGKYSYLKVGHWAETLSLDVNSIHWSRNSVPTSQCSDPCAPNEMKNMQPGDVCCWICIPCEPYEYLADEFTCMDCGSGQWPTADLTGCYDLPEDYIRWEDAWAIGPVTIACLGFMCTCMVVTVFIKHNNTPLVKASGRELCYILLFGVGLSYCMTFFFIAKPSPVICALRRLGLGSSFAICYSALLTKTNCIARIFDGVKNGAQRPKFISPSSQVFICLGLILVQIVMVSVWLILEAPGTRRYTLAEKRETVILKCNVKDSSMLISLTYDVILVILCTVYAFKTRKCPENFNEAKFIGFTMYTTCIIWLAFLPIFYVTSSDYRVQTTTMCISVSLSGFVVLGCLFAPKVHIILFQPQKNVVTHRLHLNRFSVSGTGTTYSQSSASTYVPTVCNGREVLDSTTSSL

Ki [1]: > 2.4 µM | Cmax [2]: 2160 ng/mL | Ki [3]: > 6.9 µM | Ki [4]: > 1.79 µM | Tmax [5]: 2.5 h | Ki [6]: > 7.87 µM | IC50 [7]: > 8 µM | Ki [8]: > 3.02 µM | Ki [9]: > 3.98 µM | IC50 [10]: 0.0241 µM | inhibition (Rattus norvegicus [11]): -6% | inhibition (Rattus norvegicus [12]): 15.1% | bioavailability [13]: 32% | IC50 [14]: > 12.5 µM | BPR [15]: < 1% | half-life [16]: 2 h | half-life [17]: 1 h | clearance [18]: 12 mL/min/kg | EC50 [19]: > 25 µM | inhibition [20]: 5.1% | Ki [21]: > 5.37 µM | Activity [22]: < 40% | EC50 [23]: > 12.5 µM | inhibition [24]: 0.7% | inhibition (Rattus norvegicus [25]): 63.1% | Activity [26]: < 20% | Ki [28]: > 3.58 µM | Cmax [29]: 143 ng/mL | Emax [30]: 107% | clearance [31]: 11 mL/min/kg | Ki [32]: > 2.97 µM | EC50 [33]: > 12.5 µM | EC50 [34]: > 25 µM | Ki [35]: > 7.47 µM | EC50 [36]: > 12.5 µM
Compound: CC(=O)c1ccc(OCc2ccc(Oc3cc(-c4nn[nH]n4)ccn3)cc2)c(C)c1O
Ratio [27]: 7.8
